Data taken from ChEMBL document CHEMBL5512637, “Development of Membrane-Targeting Fluorescent 2-Phenyl-1H-phenanthro[9,10-d]imidazole-Antimicrobial Peptide Mimic Conjugates against Methicillin-Resistant Staphylococcus aureus” (J Med Chem, 2024).
Converted amounts (≈) assume the structure as drawn.

Tests used:
[1] = system: Staphylococcus aureus; assay: Antibacterial activity against methicillin-resistant Staphylococcus aureus clinical isolate M-4 incubated for 16 to 18 hrs CLSI based by microbroth dilution assay; type: functional; conditions: time 16-18 hrs
[2] = system: Staphylococcus aureus; assay: Antibacterial activity against methicillin-resistant Staphylococcus aureus clinical isolate M-5 incubated for 16 to 18 hrs CLSI based by microbroth dilution assay; type: functional; conditions: time 16-18 hrs
[3] = system: Staphylococcus aureus; assay: Antibacterial activity against methicillin-resistant Staphylococcus aureus clinical isolate M-10 incubated for 16 to 18 hrs CLSI based by microbroth dilution assay; type: functional; conditions: time 16-18 hrs
[4] = system: Escherichia coli; assay: Antibacterial activity against Escherichia coli ATCC 25922 incubated for 16 to 18 hrs CLSI based by microbroth dilution assay; type: functional; conditions: time 16-18 hrs
[5] = Hemolytic activity in sheep erythrocytes incubated for 1 hr by absorbance based assay; type: toxicity, cell-based, Ovis aries, Erythrocyte
[6] = system: Staphylococcus aureus; assay: Antibacterial activity against methicillin-resistant Staphylococcus aureus clinical isolate M-2 incubated for 16 to 18 hrs CLSI based by microbroth dilution assay; type: functional; conditions: time 16-18 hrs
[7] = system: Staphylococcus aureus; assay: Antibacterial activity against methicillin-resistant Staphylococcus aureus clinical isolate M-7 incubated for 16 to 18 hrs CLSI based by microbroth dilution assay; type: functional; conditions: time 16-18 hrs
[8] = system: Staphylococcus aureus; assay: Antibacterial activity against methicillin-resistant Staphylococcus aureus clinical isolate M-9 incubated for 16 to 18 hrs CLSI based by microbroth dilution assay; type: functional; conditions: time 16-18 hrs
[9] = system: Staphylococcus aureus; assay: Antibacterial activity against methicillin-resistant Staphylococcus aureus clinical isolate M-6 incubated for 16 to 18 hrs CLSI based by microbroth dilution assay; type: functional; conditions: time 16-18 hrs
[10] = system: Staphylococcus aureus; assay: Antibacterial activity against Staphylococcus aureus ATCC 29213 incubated for 16 to 18 hrs CLSI based by microbroth dilution assay; type: functional; conditions: time 16-18 hrs
[11] = system: Staphylococcus aureus; assay: Antibacterial activity against methicillin-resistant Staphylococcus aureus clinical isolate M-8 incubated for 16 to 18 hrs CLSI based by microbroth dilution assay; type: functional; conditions: time 16-18 hrs
[12] = system: Staphylococcus aureus; assay: Antibacterial activity against methicillin-resistant Staphylococcus aureus clinical isolate M-1 incubated for 16 to 18 hrs CLSI based by microbroth dilution assay; type: functional; conditions: time 16-18 hrs
[13] = system: Staphylococcus aureus; assay: Antibacterial activity against methicillin-resistant Staphylococcus aureus clinical isolate M-3 incubated for 16 to 18 hrs CLSI based by microbroth dilution assay; type: functional; conditions: time 16-18 hrs
[14] = Selectivity index, ratio of HC50 for sheep erythrocytes to MIC for Staphylococcus aureus ATCC 29213; type: toxicity; conditions: read-out: Selectivity Index

Compound	MIC [1] [µg/mL]	MIC [2] [µg/mL]	MIC [3] [µg/mL]	MIC [4] [µg/mL]	HC50 at 1 h [5] [µg/mL]	MIC [6] [µg/mL]	MIC [7] [µg/mL]	MIC [8] [µg/mL]	MIC [9] [µg/mL]	MIC [10] [µg/mL]	MIC [11] [µg/mL]	MIC [12] [µg/mL]	MIC [13] [µg/mL]	selectivity ratio [14]
CCCCCNC(=O)C[N+](C)(C)CCCCCn1c(-c2ccc(N(C)C)cc2)nc2c3ccccc3c3ccccc3c21.[Br-]	2	2	4	64	572	2	2	2	2	2	2	4	2	286
CC(C)N(C(=O)C[N+](C)(C)CCCCn1c(-c2ccc(N(C)C)cc2)nc2c3ccccc3c3ccccc3c21)C(C)C.[Br-]	8	8	8	> 128	> 640	8	8	8	8	8	8	8	8	> 80
CCCCCCNC(=O)C[N+](C)(C)CCCCCn1c(-c2ccc(N(C)C)cc2)nc2c3ccccc3c3ccccc3c21.[Br-]	1	8	8	64	442	4	1	4	2	2	2	8	2	221
O=C1C(=O)c2ccccc2-c2ccccc21 [9,10-PHENANTHRENEQUINONE]	4 (≈ 19.2 µM)	4 (≈ 19.2 µM)	2 (≈ 9.61 µM)	> 64	> 320	4 (≈ 19.2 µM)	4 (≈ 19.2 µM)	8 (≈ 38.4 µM)	4 (≈ 19.2 µM)	4 (≈ 19.2 µM)	2 (≈ 9.61 µM)	2 (≈ 9.61 µM)	4 (≈ 19.2 µM)	> 80
CCN(CC)C(=O)C[N+](C)(C)CCCCn1c(-c2ccc(N(C)C)cc2)nc2c3ccccc3c3ccccc3c21.[Br-]	16	16	16	> 128	16	16	16	16	16	16	32	16	16	> 640
CCCCN(CCCC)C(=O)C[N+](C)(C)CCCn1c(-c2ccc(N(C)C)cc2)nc2c3ccccc3c3ccccc3c21.[Br-]	4	4	4	64	> 640	4	4	4	4	8	4	4	4	> 80
CCNC(=O)C[N+](C)(C)CCCCn1c(-c2ccc(N(C)C)cc2)nc2c3ccccc3c3ccccc3c21.[Br-]	16	16	16	> 128	> 640	16	16	16	16	16	32	16	16	> 40
CCCCN(CCCC)C(=O)C[N+](C)(C)CCCCCn1c(-c2ccc(N(C)C)cc2)nc2c3ccccc3c3ccccc3c21.[Br-]	1	2	4	> 128	225	1	1	1	1	1	1	4	1	225
CN(C)c1ccc(-c2nc3c4ccccc4c4ccccc4c3n2CCC[N+](C)(C)CC(=O)N2CCSCC2)cc1.[Br-]	64	64	64	> 128	357	64	32	64	64	64	128	64	64	5.6
CCCN(CCC)C(=O)C[N+](C)(C)CCCCCn1c(-c2ccc(N(C)C)cc2)nc2c3ccccc3c3ccccc3c21.[Br-]	2	8	4	128	99.4	4	2	2	2	2	2	4	2	49.7
CCNC(=O)C[N+](C)(C)CCCn1c(-c2ccc(N(C)C)cc2)nc2c3ccccc3c3ccccc3c21.[Br-]	32	64	64	> 128	> 640	64	32	64	64	64	64	64	64	> 10
CC(C)CN(CC(C)C)C(=O)C[N+](C)(C)CCCCn1c(-c2ccc(N(C)C)cc2)nc2c3ccccc3c3ccccc3c21.[Br-]	1	2	2	64	158	2	1	2	1	2	2	2	1	> 79.1
CN(C)c1ccc(-c2nc3c4ccccc4c4ccccc4c3n2CCCC[N+](C)(C)CC(=O)N2CCSCC2)cc1.[Br-]	16	16	16	> 128	> 640	16	16	16	16	16	16	16	16	> 40
CC(C)CN(CC(C)C)C(=O)C[N+](C)(C)CCCn1c(-c2ccc(N(C)C)cc2)nc2c3ccccc3c3ccccc3c21.[Br-]	4	8	8	128	> 320	16	32	8	16	8	16	8	16	40
